Measured values: the supplement of paper PMC10331698
± gives the standard deviation of the averaged measurements.

Experiments:
Assay in all cases: level (log10 ratio to DMSO vehicle control); higher = higher biomarker level / cell amount than vehicle control
[1] = compound: C=C(C)C(=O)OCCC(F)(F)C(F)(F)C(F)(F)C(F)(F)C(F)(F)C(F)(F)F [6:2 Fluorotelomer methacrylate]; details: in DMSO
Method: (§1)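 BioMAP Diversity Plus panel of 12 human primary cell co-culture systems (3C, 4H, LPS, SAg, BT, BF4T, BE3C, CASM3C, HDF3CGF, KF3CT, MyoF, Mphg). Compounds were added 1 h before stimulation and left for 24 h (MyoF 48 h; BT 72 h for soluble read-outs or 6 d for IgG). Biomarkers were read by ELISA, cytotoxicity by SRB, PBMC viability and proliferation by Alamar Blue. Each well value was divided by the mean of 8 DMSO control wells on the same plate and log10 transformed; duplicate blinded samples were tested at 4 concentrations.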

[2] = compound: FC(F)(F)C(F)(F)C(F)(F)CI [Heptafluorobutyl iodide]; details: in DMSO
Method: as §1

[3] = compound: O=S(=O)(O)C(F)(F)C(F)(F)C(F)(F)C(F)(F)C(F)(F)C(F)(F)C(F)(F)C(F)(F)C(F)(F)C(F)(F)F [Sodium perfluorodecanesulfonate]; details: in DMSO
Method: as §1

[4] = compound: COC(=O)C(F)(F)C(F)(F)OC(F)(C(F)(F)F)C(F)(F)OC(F)=C(F)F [Methyl perfluoro(3-(1-ethenyloxypropan-2-yloxy)propanoate)]; details: in DMSO
Method: as §1

[5] = compound: C=CC(=O)OCC(F)(F)C(F)(F)C(F)(F)COC(=O)C=C [1H,1H,5H,5H-Perfluoro-1,5-pentanediol diacrylate]; details: 6700 nM; in DMSO
Method: as §1

[6] = compound: O=C(O)C(F)(F)C(F)(F)C(F)(F)C(F)(F)C(F)(F)C(F)(F)C(F)(F)C(F)(F)C(F)(F)C(F)F [11-H-Perfluoroundecanoic acid]; details: in DMSO
Method: as §1

[7] = compound: FC(F)(F)C(F)(F)C(F)(F)C(F)(F)C(F)(F)C(F)(F)C(F)(F)I [1-Iodopentadecafluoroheptane]; details: in DMSO
Method: as §1

[8] = compound: O=C(O)C=CC(F)(C(F)(F)F)C(F)(F)F [3-(Perfluoroisopropyl)-2-propenoic acid]; details: in DMSO
Method: as §1

Row | Test System | level (log10) ([1]; 6700 nM) | level (log10) ([1]; 20000 nM) | level (log10) ([1]; 60000 nM) | level (log10) ([2]; 6700 nM) | level (log10) ([2]; 20000 nM) | level (log10) ([2]; 60000 nM) | level (log10) ([3]; 1500 nM) | level (log10) ([3]; 4400 nM) | level (log10) ([3]; 13000 nM) | level (log10) ([3]; 40000 nM) | level (log10) ([4]; 6700 nM) | level (log10) ([4]; 20000 nM) | level (log10) [5] | level (log10) ([6]; 6700 nM) | level (log10) ([6]; 20000 nM) | level (log10) ([7]; 6700 nM) | level (log10) ([7]; 20000 nM) | level (log10) ([8]; 6700 nM) | level (log10) ([8]; 20000 nM) | level (log10) ([8]; 60000 nM)
1 | CASM3C:CXCL9/MIG | 0.011 ± 0.016 | 0.0255 ± 0.012 | 0.041 ± 0.0099 | -0.0295 ± 0.0021 | -0.0225 ± 0.0021 | -0.002 ± 0.038 | 0.0195 ± 0.036 | -0.0105 ± 0.011 | 0.0285 ± 0.043 | 0.0875 ± 0.043 | -0.0025 ± 0.0078 | -0.007 ± 0.013 | -0.229 ± 0.011 | 0 ± 0.0071 | -0.009 ± 0.018 | -0.0165 ± 0.025 | 0.018 ± 0.018 | -0.004 ± 0.0099 | 0.002 ± 0.0057 | 0.027 ± 0.023
2 | CASM3C:HLA-DR | -0.008 ± 0.042 | -0.0015 ± 0.015 | 0.0155 ± 0.011 | -0.016 ± 0.024 | -0.022 ± 0.0014 | -0.008 ± 0.0028 | 0.0555 ± 0.047 | 0.007 ± 0.024 | 0.0505 ± 0.036 | 0.0855 ± 0.0035 | 0.0145 ± 0.015 | 0.0155 ± 0.022 | -0.0345 ± 0.018 | -0.0085 ± 0.0021 | -0.02 ± 0.0028 | -0.0255 ± 0.023 | 0.008 ± 0.023 | -0.033 ± 0.011 | -0.0465 ± 0.022 | 0.0095 ± 0.044
3 | CASM3C:M-CSF | -0.004 ± 0.011 | 0.002 ± 0.0014 | 0.024 ± 0.021 | -0.001 ± 0.0042 | -0.0165 ± 0.0021 | 0.0195 ± 0.037 | 0.0465 ± 0.0064 | 0.0285 ± 0.0035 | 0.03 ± 0.014 | 0.14 ± 0.079 | -0.0075 ± 0.036 | 0.01 ± 0.025 | -0.056 ± 0.021 | 0.0055 ± 0.0035 | -0.004 ± 0.0099 | -0.0285 ± 0.019 | 0.0225 ± 0.052 | -0.0195 ± 0.0078 | -0.0175 ± 0.011 | 0.009 ± 0.034
4 | HDF3CGF:CCL2/MCP-1 | -0.0445 ± 0.0092 | -0.0295 ± 0.005 | -0.048 ± 0.0028 | -0.01 ± 0.0057 | -0.013 ± 0.0057 | -0.0025 ± 0.025 | -0.0105 ± 0.05 | -0.018 ± 0.035 | 0.0415 ± 0.025 | 0.112 ± 0.0099 | 0.023 ± 0.0042 | 0.0305 ± 0.029 | -1.14 ± 0.03 | 0.0125 ± 0.0064 | -0.065 ± 0.014 | -0.0205 ± 0.025 | -0.0335 ± 0.0035 | -0.006 ± 0.018 | 0.006 ± 0.0085 | 0.017 ± 0.017
5 | HDF3CGF:CD54/ICAM-1 | -0.011 ± 0.0042 | 0.0035 ± 0.012 | 0.005 ± 0.0014 | -0.004 ± 0.0028 | 0.0005 ± 0.005 | 0.002 ± 0.0028 | -0.0145 ± 0.021 | -0.031 ± 0.016 | -0.037 ± 0.016 | -0.063 ± 0.0057 | -0.0155 ± 0.0092 | -0.029 ± 0.025 | -0.9415 ± 0.0078 | -0.058 ± 0.0085 | -0.0635 ± 0.0035 | -0.0025 ± 0.0078 | -0.0075 ± 0.0078 | -0.0105 ± 0.005 | -0.0055 ± 0.015 | -0.024 ± 0.016
6 | HDF3CGF:CD106/VCAM-1 | -0.0005 ± 0.018 | -0.0085 ± 0.0064 | -0.0395 ± 0.03 | 0.0715 ± 0.03 | 0.0695 ± 0.057 | 0.0585 ± 0.076 | -0.104 ± 0.06 | -0.164 ± 0.042 | -0.0895 ± 0.049 | -0.0215 ± 0.0092 | -0.133 ± 0.0057 | -0.313 ± 0.0099 | -0.512 ± 0.033 | -0.085 ± 0.051 | -0.234 ± 0.0064 | -0.0165 ± 0.021 | -0.046 ± 0.041 | -0.0265 ± 0.015 | -0.019 ± 0.02 | -0.025 ± 0.035
7 | HDF3CGF:CXCL8/IL-8 | 0.007 ± 0.018 | 0.0045 ± 0.015 | 0.0035 ± 0.011 | -0.003 ± 0.0057 | 0.0005 ± 0.00071 | 0.0125 ± 0.0092 | -0.0055 ± 0.0035 | -0.0095 ± 0.005 | 0.0165 ± 0.016 | 0.023 ± 0.0028 | 0.0045 ± 0.011 | 0.0245 ± 0.0064 | -1.07 ± 0.012 | -0.009 ± 0.0071 | -0.003 ± 0.016 | -0.0055 ± 0.00071 | -0.001 | -0.008 ± 0.0042 | 0.004 ± 0.011 | 0.0065 ± 0.013
8 | HDF3CGF:CXCL9/MIG | 0.0025 ± 0.019 | 0.0095 ± 0.00071 | 0.015 ± 0.0085 | -0.012 ± 0.0071 | -0.0305 ± 0.016 | -0.022 ± 0.011 | -0.0085 ± 0.022 | -0.0565 ± 0.00071 | 0.029 ± 0.0085 | 0.049 ± 0.014 | 0.01 ± 0.0014 | -0.063 ± 0.014 | -0.779 | -0.089 ± 0.0099 | -0.222 ± 0.014 | -0.016 ± 0.0042 | 0.0015 ± 0.0064 | 0.017 ± 0.0071 | 0.02 ± 0.011 | 0.011 ± 0.023
9 | HDF3CGF:Collagen I | -0.0655 ± 0.022 | -0.0695 ± 0.049 | 0.0095 ± 0.097 | 0.0275 ± 0.03 | 0.021 ± 0.0099 | 0.065 ± 0.047 | -0.0095 ± 0.012 | -0.01 | 0.067 ± 0.011 | 0.0845 ± 0.042 | 0.013 ± 0.095 | 0.069 | 0.117 ± 0.0085 | -0.093 ± 0.034 | -0.077 ± 0.025 | 0.017 ± 0.033 | -0.005 ± 0.017 | -0.0205 ± 0.043 | -0.0065 ± 0.023 | 0.0475 ± 0.035
10 | HDF3CGF:Collagen III | -0.0285 ± 0.044 | -0.007 ± 0.041 | 0.003 ± 0.052 | -0.043 ± 0.12 | -0.051 ± 0.018 | -0.0075 ± 0.11 | -0.031 ± 0.042 | -0.074 ± 0.025 | 0.054 ± 0.0014 | 0.0205 ± 0.052 | -0.059 ± 0.072 | -0.079 ± 0.016 | -0.177 ± 0.015 | -0.172 ± 0.033 | -0.294 ± 0.03 | -0.024 ± 0.014 | -0.023 ± 0.028 | -0.0125 ± 0.00071 | 0.009 ± 0.0014 | 0.033 ± 0.038
11 | HDF3CGF:EGFR | 0.004 ± 0.0071 | 0.0275 ± 0.028 | 0.0155 ± 0.0092 | -0.0495 ± 0.064 | -0.054 ± 0.072 | -0.0055 ± 0.04 | -0.009 ± 0.067 | -0.0295 ± 0.0092 | -0.001 ± 0.0014 | 0.079 ± 0.0099 | 0.0505 ± 0.054 | -0.005 ± 0.12 | -0.016 ± 0.025 | -0.022 ± 0.011 | -0.124 ± 0.018 | 0.011 ± 0.02 | 0.0135 ± 0.042 | -0.0025 ± 0.005 | 0.0015 ± 0.005 | 0.0265 ± 0.025
12 | HDF3CGF:M-CSF | -0.02 ± 0.0057 | -0.022 ± 0.0099 | -0.029 ± 0.0028 | -0.0665 ± 0.063 | -0.065 ± 0.023 | -0.07 ± 0.027 | 0.0325 ± 0.0078 | 0.009 ± 0.018 | 0.037 ± 0.035 | 0.0405 ± 0.0035 | 0.031 ± 0.058 | -0.074 ± 0.069 | -0.482 ± 0.027 | -0.0345 ± 0.005 | -0.108 ± 0.029 | -0.0165 ± 0.018 | -0.0165 ± 0.0064 | -0.0005 ± 0.0021 | 0.001 ± 0.0028 | 0 ± 0.0057
13 | HDF3CGF:MMP-1 | 0.023 ± 0.0085 | 0.031 ± 0.0028 | 0.039 ± 0.0057 | -0.014 ± 0.028 | -0.0195 ± 0.021 | -0.0255 ± 0.025 | -0.0125 ± 0.0092 | -0.0145 ± 0.0078 | -0.007 ± 0.024 | 0.027 ± 0.024 | 0.0115 ± 0.011 | 0.02 ± 0.033 | -0.3945 ± 0.00071 | -0.096 ± 0.034 | -0.0815 ± 0.005 | -0.0105 ± 0.0021 | -0.0285 ± 0.018 | 0.0005 ± 0.012 | 0.008 ± 0.011 | 0.0005 ± 0.0064
14 | HDF3CGF:PAI-I | -0.0695 ± 0.083 | -0.057 ± 0.064 | -0.0415 ± 0.057 | 0.0035 ± 0.043 | -0.004 ± 0.03 | -0.018 ± 0.027 | 0.0815 ± 0.042 | 0.159 ± 0.0028 | 0.129 ± 0.041 | 0.147 ± 0.038 | 0.107 ± 0.0099 | 0.0875 ± 0.00071 | -0.85 ± 0.033 | 0.018 ± 0.0099 | -0.0045 ± 0.0035 | -0.044 ± 0.0071 | -0.064 ± 0.023 | -0.0085 ± 0.018 | -0.0215 ± 0.015 | -0.0005 ± 0.032
